The record followed here is paper PMC6278960 (Haematologica, 2018).

In general, IC50 refers to the concentration that gives 50% inhibition.

For the experiment, the target named is protein disulfide isomerase (PDI) (Homo sapiens, UniProt P07237). The experiment can be described thus: turbidimetric insulin disulfide reduction assay with recombinant human PDI. Format: biochemical.
Chain of protein disulfide isomerase (PDI) (P07237 18-508): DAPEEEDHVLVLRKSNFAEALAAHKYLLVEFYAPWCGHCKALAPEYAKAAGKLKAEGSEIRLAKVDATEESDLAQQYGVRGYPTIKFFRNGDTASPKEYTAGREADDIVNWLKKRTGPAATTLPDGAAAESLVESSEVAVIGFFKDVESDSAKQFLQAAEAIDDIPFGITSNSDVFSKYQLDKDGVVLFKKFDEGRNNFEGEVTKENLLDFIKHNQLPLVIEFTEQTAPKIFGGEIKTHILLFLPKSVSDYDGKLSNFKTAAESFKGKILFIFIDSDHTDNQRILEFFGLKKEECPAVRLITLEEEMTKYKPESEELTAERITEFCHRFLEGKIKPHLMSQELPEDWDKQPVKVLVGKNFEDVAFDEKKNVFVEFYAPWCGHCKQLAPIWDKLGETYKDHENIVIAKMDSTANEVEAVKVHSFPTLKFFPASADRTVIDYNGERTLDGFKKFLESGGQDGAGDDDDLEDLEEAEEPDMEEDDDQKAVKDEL

Turning to SK053, the IC50 is 9.98 µM.
